One data set concerns P. aeruginosa. To be noted: concentrations used reflect reported MICs; cited from earlier work.
Data set [1] concerns Pseudomonas aeruginosa strain PA01 wild type. In words: PAI-DHBA as an adjuvant to conventional antibiotics on bacterial growth. The format is cell-based. To be noted: Ciprofloxacin 1 μg/mL added at 5 h, read at 9 h, versus control.
The conditions of data set [2]: in vivo; cited from earlier work.
The subject of data set [3] is Pseudomonas aeruginosa strain PA01 wild type. In words: Comparison to traditional iron chelating agents, bacterial counts. The format is cell-based. To be noted: EDTA or HBED 500 μM, PAI-DHBA 20 mg, added at inoculation; 5, 6 and 12 h.

Where a name gives a salt, the structure may show the parent alone.

In the case of `O=C(O)c1cn(C2CC2)c2cc(N3CCNCC3)c(F)cc2c1=O` [Ciprofloxacin, Ciprofloxacin hydrochloride], the “Reported MIC” value in the data set with P. aeruginosa was 1 µg/mL. The “Overall reduction in CFU/mL” value in data set [1] is given as “approximately 4 log units”.

`CC(=O)N(O)CCCCCNC(=O)CCC(=O)N(O)CCCCCNC(=O)CCC(=O)N(O)CCCCCN` [DFO, deferoxamine]: the Plasma half-life in data set [2] was ~5.5 min. With `O=C(O)CN(CCN(CC(=O)O)Cc1ccccc1O)Cc1ccccc1O` [HBED, N,N-bis (2-hydroxybenzyl) ethylenediamine-N,N-diacetic acid], the “Bacterial count (CFU/mL) versus control (no chelator)” value in data set [3] is given as “small, transient difference”. As for Gentamicin sulfate, the “Reported MIC” value in the data set on P. aeruginosa is 24 µg/mL. On to “sodium ethylene diamine tetraacetate [EDTA]”, for which the “Bacterial count (CFU/mL) versus control (no chelator)” value in data set [3] was “small, transient difference”.

(Values after patent US20170209483A1, “ANTIBIOTIC ACTIVITY OF IRON SEQUESTERING POLYMERS” (UNIVERSITY OF KANSAS, priority 2014, published 2017).)
